From patent US20260250262A1, “NEW COMPOUND AND PHARMACEUTICAL COMPOSITION COMPRISING SAME” (SAMJIN PHARMACEUTICAL CO., LTD., priority 2023, published 2026) come the findings set out here.

In one test the test system is NCI-N87 (gastric cancer). Kind of test: Tumor cytotoxicity assay (MTT), NCI-N87. It counts as cell-based. The settings on record: Homo sapiens, NCI-N87, 72 hours. The method, then: (§1) First, the compounds were prepared in 100% dimethyl sulfoxide (DMSO) at concentrations of 0.02 μM to 200 μM, and then diluted in the culture medium so that the final concentration of DMSO might reach 0.5%, and treated with the drugs. The final concentration range of the compounds was 0.1 nM to 1000 nM. After that, they were further incubated for 72 hours under conditions of 37° C. and CO2 5%. […] The cell viability (%) was relatively determined by subtracting the reference 650 nm optical density (O.D.) from the 570 nm O.D., and the 0.5% DMSO-treated control was set as 100% as the standard.

Test [1] deals with T1, Recombinant NAMPT protein (Homo sapiens, UniProt P43490).
T1 construct: purchased BPS bioscience #7176-1
T1 sequence (P43490 whole entry): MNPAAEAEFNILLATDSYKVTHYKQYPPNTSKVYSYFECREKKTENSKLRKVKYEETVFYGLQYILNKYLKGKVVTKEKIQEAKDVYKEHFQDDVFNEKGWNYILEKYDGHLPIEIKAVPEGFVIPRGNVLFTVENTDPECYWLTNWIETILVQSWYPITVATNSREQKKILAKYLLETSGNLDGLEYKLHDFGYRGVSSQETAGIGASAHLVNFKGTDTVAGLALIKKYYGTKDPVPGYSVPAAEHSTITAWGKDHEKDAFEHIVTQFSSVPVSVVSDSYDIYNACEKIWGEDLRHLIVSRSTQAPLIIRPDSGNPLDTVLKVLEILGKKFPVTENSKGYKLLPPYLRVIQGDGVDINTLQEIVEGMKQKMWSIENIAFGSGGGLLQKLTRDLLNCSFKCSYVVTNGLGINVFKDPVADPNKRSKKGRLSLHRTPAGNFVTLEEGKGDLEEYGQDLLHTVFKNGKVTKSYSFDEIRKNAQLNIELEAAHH
Kind of test: NAMPT enzyme inhibition assay (BPS Bioscience NAMPT Inhibitor Screening Assay Kit). It counts as biochemical. The settings on record: 30 min pre-incubation, 2 h at 30° C., fluorescence. On the procedure: Recombinant NAMPT protein was added to each well of a black 96-well plate, and dilution buffer was added to a blank well instead of NAMPT protein. A 5× concentrated compound solution was added and pre-incubated at room temperature (approximately 22° C.) for 30 minutes before the start of the reaction so that the compound and protein might bind before the enzyme reaction. At this time, the concentration of NAMPT protein was adjusted and used according to the enzyme activity of each protein lot within the final concentration range of 4-10 ng/μl, and the test compound was serially diluted at a ratio of 1:3 from 1000 nM to 1 nM, and experiments were conducted with n=2 for about seven concentrations. […] The NAMPT enzyme activity (%) was calculated by subtracting the measurement value of the blank well without NAMPT protein from the measurement value of all wells, and then taking the measurement value of the control well without the compound as 100%.

For test [2], the system named is HCT-116 (colorectal cancer). Kind of test: Tumor cytotoxicity assay (MTT), HCT-116. It counts as cell-based. The settings on record: Homo sapiens, HCT-116, 72 hours. On the procedure:
as §1

The next test relates to HCT-116 cell lines. Kind of test: Cellular NAD measurement assay (NAD/NADH-Glo). It counts as cell-based. Conditions: Homo sapiens; HCT-116, 24 hours treatment, intracellular NAD+/NADH level. The method, then: With regard to HCT-116 cell lines, the decrease in intracellular NAD+ and NADH levels due to the inhibition of NAMPT enzyme activity by compounds was evaluated using NAD/NADH-Glo™ Assay (Promega, G9072) from Promega. The cells were incubated using DMEM (Gibco, 11995-065) medium containing 10% FBS. The HCT-116 cells were incubated for 24 hours after being distributed at a density of 2,500 cells per well in a 96-well plate, and were treated with the drugs using serum-free DMEM. First, the compounds were dissolved in 100% dimethyl sulfoxide (DMSO), and then diluted in the culture medium so that the final concentration of DMSO might reach 0.5%, and treated with the drugs. The final concentration range of the compounds was 0.1 nM to 100 nM. After that, they were further incubated for 24 hours under conditions of 37° C. and CO2 5%. To conduct the NAD/NADH-Glo™ Assay, the culture medium of drug-treated cells was removed, 50 μL of DPBS was treated per well, and left at room temperature for five minutes. The required amount of NAD/NADH-Glo™ Detection Reagent (Reconstituted Luciferin Detection Reagent 1 mL, Reductase 5 μL, Reductase Substrate 5 μL, NAD Cycling Enzyme 5 μL, NAD Cycling Substrate 25 μL) was prepared according to the manufacturer's manual and treated in an amount of 50 μL per well. After incubating for two minutes at 400 rpm in a plate shaker for cell lysis, the cells were incubated for 30 minutes at room temperature, and luminescence was measured. NAD+/NADH levels were calculated by subtracting the measurement value of the blank well without cells from the measurement value of all wells and taking the 0.5% DMSO-treated control as 100%.

With `O=C(NCc1ccn2ccnc2c1)Nc1ccc(-c2ccncc2)c(C#Cc2ccc(F)cc2)c1` [Compound 4, 1-(3-((4-fluorophenyl)ethynyl)-4-(pyridin-4-yl)phenyl)-3-(imidazo[1,2-a]pyridin-7-ylmethyl)urea], the CC50 (in the test on NCI-N87 (gastric cancer); in test [2]) was < 30 nM each time. Besides, the IC50 in test [1] is < 500 nM; in the test on HCT-116 cell lines it was ≤ 10 nM.
For `O=C(NCCc1cccnc1)Nc1ccc(-c2ccc(N3CCNCC3)cc2)c(C#Cc2ccc(F)cc2)c1` [Compound 13, 1-(2-((4-fluorophenyl)ethynyl)-4′-(piperazin-1-yl)-[1,1′-biphenyl]-4-yl)-3-(2-(pyridin-3-yl)ethyl)urea], the CC50 (in the test with NCI-N87 (gastric cancer); in test [2]) was < 30 nM each time. The figures for the IC50 (in test [1]; in the test with HCT-116 cell lines) were < 500 nM and ≤ 10 nM, respectively.
Turning to `Cc1nc2cc(-c3ccc(NC(=O)NCCc4cccnc4)cc3C#Cc3ccc(F)cc3)ccc2c(=O)[nH]1` [Compound 14], the CC50 (in the test with NCI-N87 (gastric cancer); in test [2]) was < 30 nM each time. In addition, the IC50 in test [1] is < 500 nM; in the test with HCT-116 cell lines, ≤ 10 nM.
As to `O=C(NCCc1cccnc1)Nc1ccc(-c2ccncc2)c(C#Cc2ccc(C(=O)NCCN3CCNCC3)cc2)c1` [Compound 47], the CC50 in the test with NCI-N87 (gastric cancer) is 30 to 100 nM; in test [2], < 30 nM. Besides, the IC50 in test [1] is < 500 nM; in the test on HCT-116 cell lines, 10 to 1000 nM.
Turning to `Cc1nc2cc(-c3ccc(NC(=O)NCCc4cccnc4)cc3C#Cc3ccc(F)cc3)ccc2c(=O)n1CCN` [Compound 186], the CC50 in the test with NCI-N87 (gastric cancer) is 30 to 100 nM; in test [2], < 30 nM. The values for the IC50 (in test [1]; in the test on HCT-116 cell lines) were < 500 nM and ≤ 10 nM, respectively.
The corresponding values for `O=C(NCc1ccn2ccnc2c1)Nc1ccc(-c2ccncc2)c(C#Cc2ccc(C3CCNCC3)cc2)c1` [Compound 187] are < 30 nM, < 30 nM, < 500 nM and ≤ 10 nM.
